# Literature values as cited in patent US20090061517A1, “Cell culture apparatus and methods of making and using same” (priority 2007, published 2009).
# Conditions: in humans
compound,measurement,value
C[C@H]1COc2c(N3CCN(C)CC3)c(F)cc3c(=O)c(C(=O)O)cn1c23 [levofloxacin],idiosyncratic hepatotoxicity / idiosyncratic adverse drug reactions,without liability for causing idiosyncratic adverse drug reactions
N[C@@H]1[C@H]2CN(c3nc4c(cc3F)c(=O)c(C(=O)O)cn4-c3ccc(F)cc3F)C[C@@H]12 [trovafloxacin],idiosyncratic hepatotoxicity / idiosyncratic adverse drug reactions,linked to idiosyncratic hepatotoxicity in humans
